Data as given in patent US20130204033A1, “ANTIPROLIFERATIVE COMPOUNDS, CONJUGATES THEREOF, METHODS THEREFOR, AND USES THEREOF” (Medarex, Inc., priority 2009, published 2013).
pEC50: −log10 of the molar value. Read-outs that look alike come from different tables or passages of the source.

What was measured:
Format in all cases: cell-based, human
SW-620 = assay: ATP luminescence proliferation assay, SW-620
Method: (§1) This example generally describes the procedures used to assay the antiproliferative activity of compounds of this invention or their conjugates. Human tumor cell lines were obtained from the American Type Culture Collection (ATCC), P.O. Box 1549, Manassas, Va. 20108, USA, and cultured according to instruction from the ATCC. Cells were seeded at 1.0×10^3 or 1.0×10^4 cells/well in 96-well plates for 3 h for ATP assays or ^3H thymidine assays, respectively. 1:3 serial dilutions of free (unconjugated) compounds or their conjugates were added to the wells. Plates were allowed to incubate for 24 to 72 h. The ^3H thymidine plates were pulsed with 1.0 μCi of ^3H-thymidine per well for the last 24 hours of the total incubation period, harvested, and read on a Top Count Scintillation Counter (Packard Instruments, Meriden, Conn.). ATP levels in the ATP plates were measured using the […]-GLO® Luminescent Cell Viability kit following the manufacturer's manual and read on a GLOMAX® 20/20 luminometer (both from Promega, Madison, Wis., USA). The EC50 values—the concentration at which an agent inhibits or reduces cell proliferation by 50% —were determined using PRISM™ software, version 4.0 (GraphPad Software, La Jolla, Calif., USA).
(§2) Using the ^3H thymidine or the ATP luminescence assay, or both, the activities of compounds of this invention were assayed against the following cancer cell lines: HCT-15 (colorectal cancer, multi-drug resistant (MDR)); Hep3B (liver cancer); LNCaP (prostate cancer, androgen receptor positive (AR^+)); MDA-MB-231 (breast cancer, estrogen receptor, progesterone receptor, and Her2 negative (triple negative)); A2058 (melanoma); U-87 MG (glioblastoma); NCI-H460 (NSCLC); A549 (NSCLC); HPAC (pancreatic cancer, primary); PC3 (prostate cancer, AR); BT474 (breast cancer, Her2 highly positive (Her2hi)); SKOV3 (ovarian cancer, Her2hi); 786-O (renal cancer); UO-31 (renal cancer, MDR); NCI-H740 (SCLC); DMS53 (SCLC); SK-BR3 (breast cancer, Her2hi); ZR-75 (breast cancer, estrogen receptor positive); OVCAR3 (ovarian cancer); HL-60 (APL); OVCAR8/Adr (ovarian cancer, MDR); CEM-Cl (ALL); Nomo-1 (AML); RPMI-8226 (MM)); Raji (lymphoma); SW-480 (colorectal cancer, metastatic); SW-620 (colorectal cancer); and H226 (lung cancer). (Not all compounds were assayed against all cell lines.)
(§3) Table 3 provides the data for the ATP luminescence proliferation assays, with an incubation period of 48, 72, or 96 h, as noted.

H740 = assay: 3H thymidine proliferation assay, H740
Method: as §1, §2
(§4) Table 2 provides the data for proliferation assays using the ^3H thymidine method, with an incubation period of 72 h.

A2058 = assay: 3H thymidine proliferation assay, A2058; conditions: 3H thymidine method, 72 h incubation
Method: as §1, §2, §4

Raji [1] = assay: ATP luminescence proliferation assay, Raji
Method: as §1, §2, §3

Raji [2] = assay: 3H thymidine proliferation assay, Raji
Method: as §1, §2, §4

PC3 [3] = assay: ATP luminescence proliferation assay, PC3
Method: as §1, §2, §3

A549 = assay: 3H thymidine proliferation assay, A549
Method: as §1, §2, §4

PC3 [4] = assay: 3H thymidine proliferation assay, PC3
Method: as §1, §2, §4

SK-BR3 = assay: 3H thymidine proliferation assay, SK-BR3; conditions: 3H thymidine method, 72 h incubation
Method: as §1, §2, §4

SKOV3 = assay: 3H thymidine proliferation assay, SKOV3
Method: as §1, §2, §4

HL-60 = assay: 3H thymidine proliferation assay, HL-60
Method: as §1, §2, §4

HCT-15 = assay: ATP luminescence proliferation assay, HCT-15
Method: as §1, §2, §3

RPMI-8226 = assay: ATP luminescence proliferation assay, RPMI-8226
Method: as §1, §2, §3

OVCAR3 [5] = assay: 3H thymidine proliferation assay, OVCAR3
Method: as §1, §2, §4

NCI-H460 = assay: ATP luminescence proliferation assay, NCI-H460
Method: as §1, §2, §3

OVCAR3 [6] = assay: ATP luminescence proliferation assay, OVCAR3
Summary of the method: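 Cells seeded at 1.0×10^3 cells/well for 3 h, then exposed to 1:3 serial dilutions of free compounds or conjugates for 48, 72 or 96 h as noted. ATP measured by Glo luminescent viability kit; EC50 taken as concentration reducing proliferation by 50%.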

UO-31 = assay: 3H thymidine proliferation assay, UO-31
Method: as §1, §2, §4

ZR-75 = assay: ATP luminescence proliferation assay, ZR-75
Method: as §1, §2, §3

U-87 MG = assay: ATP luminescence proliferation assay, U-87 MG
Method: as §1, §2, §3

CEM-Cl = assay: ATP luminescence proliferation assay, CEM-C1
Method: as §1, §2, §3

[7] = Homo sapiens, SW-620, 96 h, read-out: EC50 SW-620 (96 h), ATP luminescence, SW-620, 96 h incubation
[8] = Homo sapiens, read-out: EC50, H740, 3H thymidine method, 72 h incubation
[9] = Homo sapiens, 72 h, read-out: EC50 Raji (72 h), ATP luminescence, Raji, 72 h incubation
[10] = Homo sapiens, Raji, read-out: EC50, Raji, 3H thymidine method, 72 h incubation
[11] = Homo sapiens, PC-3, 48 h, read-out: EC50 PC3 (48 h), ATP luminescence, PC3, 48 h incubation
[12] = Homo sapiens, A549, read-out: EC50, A549, 3H thymidine method, 72 h incubation
[13] = Homo sapiens, PC-3, read-out: EC50, PC3, 3H thymidine method, 72 h incubation
[14] = Homo sapiens, SK-OV-3, read-out: EC50, SKOV3, 3H thymidine method, 72 h incubation
[15] = Homo sapiens, HL-60, read-out: EC50, HL-60, 3H thymidine method, 72 h incubation
[16] = Homo sapiens, HCT-15, 72 h, read-out: EC50 HCT-15 (72 h), ATP luminescence, HCT-15, 72 h incubation
[17] = Homo sapiens, RPMI-8226, 72 h, read-out: EC50 RPMI-8226 (72 h), ATP luminescence, RPMI-8226, 72 h incubation
[18] = Homo sapiens, OVCAR-3, read-out: EC50, OVCAR3, 3H thymidine method, 72 h incubation
[19] = Homo sapiens, NCI-H460, 72 h, read-out: EC50 NCI-H460 (72 h), ATP luminescence, NCI-H460, 72 h incubation
[20] = Homo sapiens, OVCAR-3, 48 h, read-out: EC50 OVCAR3 (48 h), ATP luminescence, OVCAR3, 48 h incubation
[21] = Homo sapiens, UO-31, read-out: EC50, UO-31, 3H thymidine method, 72 h incubation
[22] = Homo sapiens, ZR75, 48 h, read-out: EC50 ZR-75 (48 h), ATP luminescence, ZR-75, 48 h incubation
[23] = Homo sapiens, 72 h, read-out: EC50 U-87 MG (72 h), ATP luminescence, U-87 MG, 72 h incubation
[24] = Homo sapiens, CEM/C1, 72 h, read-out: EC50 CEM-C1 (72 h), ATP luminescence, CEM-C1, 72 h incubation

Row | Structure (SMILES) | pEC50 (SW-620; [7]) | pEC50 (H740; [8]) | pEC50 (A2058; Homo sapiens, A2058) | pEC50 (Raji [1]; [9]) | pEC50 (Raji [2]; [10]) | pEC50 (PC3 [3]; [11]) | pEC50 (A549; [12]) | pEC50 (PC3 [4]; [13]) | pEC50 (SK-BR3; Homo sapiens, SK-BR-3) | pEC50 (SKOV3; [14]) | pEC50 (HL-60; [15]) | pEC50 (HCT-15; [16]) | pEC50 (RPMI-8226; [17]) | pEC50 (OVCAR3 [5]; [18]) | pEC50 (NCI-H460; [19]) | pEC50 (OVCAR3 [6]; [20]) | pEC50 (UO-31; [21]) | pEC50 (ZR-75; [22]) | pEC50 (U-87 MG; [23]) | pEC50 (CEM-Cl; [24]) | also measured
1 | CCC[C@H](NC(=O)[C@H](Cc1ccccc1)NC(=O)c1csc([C@@H](C[C@H](C(C)C)N(C)C(=O)[C@@H](NC(=O)[C@H]2CCCCN2C)[C@@H](C)CC)OC)n1)C(=O)OC [Compound 19] |  |  |  |  |  |  |  |  |  |  |  |  |  |  |  |  |  |  |  |  | pEC50 (SW-620; ATP luminescence, SW-620, 96 h incubation, read-out: EC50 SW-620 (96 h)): 7.85; pEC50 (H740; 3H thymidine method, 72 h incubation, read-out: EC50, H740): 8.42; pEC50 (A2058): 9.89; pEC50 (Raji [1]; ATP luminescence, 72 h incubation, read-out: EC50 Raji (72 h)): 8.04; pEC50 (Raji [2]; 3H thymidine method, 72 h incubation, read-out: EC50, Raji): 7.49; pEC50 (PC3 [3]; ATP luminescence, PC3, 48 h incubation, read-out: EC50 PC3 (48 h)): ~7.48; pEC50 (A549; 3H thymidine method, 72 h incubation, read-out: EC50, A549): < 7.00; pEC50 (PC3 [4]; 3H thymidine method, 72 h incubation, read-out: EC50, PC3): < 7.00; pEC50 (SK-BR3): < 7.00; pEC50 (SKOV3; 3H thymidine method, 72 h incubation, read-out: EC50, SKOV3): < 7.00; pEC50 (HL-60; 3H thymidine method, 72 h incubation, read-out: EC50, HL-60): 7.43; pEC50 (HCT-15; ATP luminescence, HCT-15, 72 h incubation, read-out: EC50 HCT-15 (72 h)): 6.61; pEC50 (RPMI-8226; ATP luminescence, RPMI-8226, 72 h incubation, read-out: EC50 RPMI-8226 (72 h)): 8.02; pEC50 (OVCAR3 [5]; 3H thymidine method, 72 h incubation, read-out: EC50, OVCAR3): 7.28; pEC50 (NCI-H460; ATP luminescence, NCI-H460, 72 h incubation, read-out: EC50 NCI-H460 (72 h)): 7.37; pEC50 (OVCAR3 [6]; ATP luminescence, OVCAR3, 48 h incubation, read-out: EC50 OVCAR3 (48 h)): 7.60; pEC50 (UO-31; 3H thymidine method, 72 h incubation, read-out: EC50, UO-31): < 7.00; pEC50 (ZR-75; ATP luminescence, ZR-75, 48 h incubation, read-out: EC50 ZR-75 (48 h)): 7.70; pEC50 (U-87 MG; ATP luminescence, 72 h incubation, read-out: EC50 U-87 MG (72 h)): < 7.00; pEC50 (CEM-Cl; ATP luminescence, CEM-C1, 72 h incubation, read-out: EC50 CEM-C1 (72 h)): 7.96
2 | CC[C@H](C)[C@H](NC(=O)[C@H]1CCCCN1C)C(=O)N(C)[C@H](C[C@@H](OC)c1nc(C(=O)N[C@@H](Cc2ccccc2)C(=O)N[C@@H](C)C(=O)OC)cs1)C(C)C [Compound 24] | 8.00 | 7.29 | 9.92 | 8.10 | 7.96 | 7.89 | 7.42 | 7.20 | < 7.00 | 7.17 | 8.16 | 6.73 | 8.08 | 7.05 | 7.64 | 7.54 | < 7.00 | 8.08 | 7.74 | 8.06 | 
3 | CC[C@H](C)[C@H](NC(=O)[C@H]1CCCCN1C)C(=O)N(C)[C@H](C[C@@H](OC)c1nc(C(=O)N[C@H](CC(=O)OC)Cc2ccccc2)cs1)C(C)C [Compound 25] | 6.71 | 6.46 | 6.39 | 6.68 | 6.64 | 6.81 | 6.57 | 6.50 | 5.77 | 6.74 | 6.51 | 6.44 | 6.63 | 6.42 | 6.75 | < 5.52 | 6.36 | 6.00 | 6.45 | 6.75 | 
